Data taken from patent publication US12673954B2 (BRISTOL-MYERS SQUIBB COMPANY, priority 2021, dated 2026).
Like-named read-outs stand apart in the source and are kept apart here.

Experiments:
[1] = test system: IRF pathway, THP1-Dual™ cells; experiment: STING reporter assay in THP1-Dual cells, IRF pathway (Lucia luciferase, QUANTI-Luc); type: cell-based, human; conditions: THP1-Dual cells, 10% human plasma, 20 hours, Lucia luciferase, 100% activation = 100 μM cGAMP, read-out: IRF (EC50 μM)
From the text: (§1) THP1-Dual™ cells were derived from the human THP-1 monocyte cell line by stable integration of two inducible reporter constructs. To this end, THP1-Dual™ cells allow the simultaneous study of the NF-κB pathway, by monitoring the activity of SEAP, and the IRF pathway by assessing the activity of a secreted luciferase (Lucia). Both reporter proteins are readily measurable in the cell culture supernatant when using QUANTI-Blue™, a SEAP detection reagent, and QUANTI-Luc™, a luciferase detection reagent.
(§2) THP1-Dual™ cells induce the activation of NF-κB in response to STING agonists. They also trigger the IRF pathway upon stimulation with STING agonists, such as cGAMP. Here, the THP-1-Dual cells were used to assess STING specific binders for function on the cellular level.
(§3) Serial dilutions of compounds in DMSO were added to low volume 384 well plates at 100 nl/well using an ECHO acoustic dispenser (Labcyte, model 550) to achieve final starting concentration of 100 μM in cell suspension. […] One column of the plate was reserved for treatment with cGAMP at 100 μM for 100% activation calculation and one column for no treatment (DMSO only) for baseline activation. Plates were then incubated in 37° C. incubator at 5% CO2 for 20 hours.
(§4) Plates were read on the Envision (Perkin Elmer) at 620 nm wavelength (OD620). In the luciferase assay, 5 μl of Quantiluc (Invivogen, Rep-qlc2) is added to white 384 well plates seeded with THP1 cells and read at 5 minutes on the Envision (Perkin Elmer) using a luminescence protocol (RLU). 100% activation was determined by value (RLU) of THP-1 Dual STING cells stimulated with 100 μM cGAMP (Invivogen, cat #TLRL-NACGA23-5).

[2] = test system: NF-κB pathway, THP1-Dual™ cells; experiment: STING reporter assay in THP1-Dual cells, NF-κB pathway (SEAP, QUANTI-Blue); type: cell-based, human; conditions: THP1-Dual cells, 10% human plasma, 20 hours, SEAP, 100% activation = 100 μM cGAMP, read-out: NFkB (EC50 μM)
From the text: as §1, §2, §3, §4

Row | SMILES | EC50 ([1]; Homo sapiens, THP1-Dual, 20 h) | EC50 ([2]; Homo sapiens, THP1-Dual, 20 h) | EC50 [1] | EC50 [2]
1 | Cc1cc(C(=O)O[C@H](C)C(F)(F)F)c2oc(C(C)NC(=O)c3cnn4cccnc34)c(Cl)c2c1 (stereo partly drawn) [EXAMPLE 304, (R)-1,1,1-Trifluoropropan-2-yl 3-chloro-5-methyl-2-(1-(pyrazolo[1,5-a]pyrimidine-3-carboxamido)ethyl)benzofuran-7-carboxylate] | 7.6 µM | 8.3 µM |  | 
2 | COC(=O)c1cccc2cc(Cn3ccc4ccncc4c3=O)oc12 [EXAMPLE 7, Methyl 2-((1-oxo-2,7-naphthyridin-2(1H)-yl)methyl)benzofuran-7-carboxylate] | 4.3 µM | 4.1 µM |  | 
3 | COC(OC(=O)c1cc(C#N)cc2cc(CNC(=O)c3cnn4cccnc34)oc12)C(F)(F)F (single isomer, unassigned) [EXAMPLE 348, 2,2,2-Trifluoro-1-methoxyethyl 5-cyano-2-((pyrazolo[1,5-a]pyrimidine-3-carboxamido)methyl)benzofuran-7-carboxylate] |  |  | 5.6 µM | 3.9 µM
4 | Cc1cc(C(=O)OC(C)C(F)(F)F)c2oc(CNC(=O)c3cnn4cccnc34)cc2c1 (stereo not drawn) [EXAMPLE 378, 1,1,1-Trifluoropropan-2-yl 5-methyl-2-((pyrazolo[1,5-a]pyrimidine-3-carboxamido)methyl)benzofuran-7-carboxylate] | 1.3 µM | 1.2 µM |  | 
5 | COC(OC(=O)c1cc(C#N)cc2cc(CNC(=O)c3cnn4cccnc34)oc12)C(F)(F)F (single isomer, unassigned) [EXAMPLE 347, 2,2,2-Trifluoro-1-methoxyethyl 5-cyano-2-((pyrazolo[1,5-a]pyrimidine-3-carboxamido)methyl)benzofuran-7-carboxylate] | 3.3 µM | 2.3 µM |  | 
6 | COC(=O)c1cc(F)c(F)c2cc(CN3CCc4ccncc4C3=O)oc12 [EXAMPLE 125, Methyl 4,5-difluoro-2-((1-oxo-3,4-dihydro-2,7-naphthyridin-2(1H)-yl)methyl)benzofuran-7-carboxylate] | 3.9 µM | 4.4 µM |  | 
7 | COC(=O)c1cc(Cl)cc2c(C)c(CNC(=O)c3cnn4cccnc34)oc12 [EXAMPLE 115, Methyl 5-chloro-3-methyl-2-((pyrazolo[1,5-a]pyrimidine-3-carboxamido)methyl)benzofuran-7-carboxylate] | 0.6 µM | 0.82 µM |  | 
8 | O=C(OCCO)c1cccc2cc(CN3CCc4ccncc4C3=O)oc12 [EXAMPLE 211, 2-Hydroxyethyl 2-((1-oxo-3,4-dihydro-2,7-naphthyridin-2(1H)-yl)methyl)benzofuran-7-carboxylate] | 23 µM | 31 µM |  | 
9 | CCOC(=O)c1cccc2cc(CN3Cc4ccncc4C3=O)oc12 [EXAMPLE 203, Ethyl 2-((3-oxo-1,3-dihydro-2H-pyrrolo[3,4-c]pyridin-2-yl)methyl)benzofuran-7-carboxylate] | 44 µM | 65 µM |  | 
10 | CC(C)OC(=O)c1cccc2cc(CN3CCc4ccncc4C3=O)oc12 [EXAMPLE 206, Isopropyl 2-((1-oxo-3,4-dihydro-2,7-naphthyridin-2(1H)-yl)methyl)benzofuran-7-carboxylate] | 13 µM | 12 µM |  | 
11 | COC(=O)c1ccc(C)c2cc(CN3CCc4ccncc4C3=O)oc12 [EXAMPLE 28, Methyl 4-methyl-2-((1-oxo-3,4-dihydro-2,7-naphthyridin-2(1H)-yl)methyl)benzofuran-7-carboxylate] | 3.1 µM | 3.6 µM |  | 
12 | CCOC(=O)OCOC(=O)c1cc(Cl)cc2cc(CNC(=O)c3cnn4cccnc34)oc12 [EXAMPLE 260, ((Ethoxycarbonyl)oxy)methyl 5-chloro-2-((pyrazolo[1,5-a]pyrimidine-3-carboxamido)methyl)benzofuran-7-carboxylate] | 1 µM | 0.82 µM |  | 
13 | CCCn1cncc(C(=O)NCc2cc3cc(Cl)cc(C(=O)OC)c3o2)c1=O [Example 67, Methyl 5-chloro-2-((1-propyl-6-oxo-1,6-dihydropyrimidine-5-carboxamido)methyl)benzofuran-7-carboxylate] | 20 µM | 32 µM |  | 
14 | CC(OC(=O)c1ccc(F)c2cc(CNC(=O)c3cnn4cccnc34)oc12)C(F)(F)F (single isomer, unassigned) [EXAMPLE 309, 1,1,1-Trifluoropropan-2-yl 4-fluoro-2-((pyrazolo[1,5-a]pyrimidine-3-carboxamido)methyl)benzofuran-7-carboxylate] |  |  | 6.1 µM | 7.2 µM
15 | CC(NC(=O)c1cnn2cccnc12)c1cc2cc(F)cc(C(=O)O[C@@H](C)C(F)(F)F)c2o1 (stereo partly drawn) [EXAMPLE 305, (S)-1,1,1-Trifluoropropan-2-yl 5-fluoro-2-(1-(pyrazolo[1,5-a]pyrimidine-3-carboxamido)ethyl)benzofuran-7-carboxylate] | 5 µM | 3.9 µM |  | 
16 | CNc1nn2cccnc2c1C(=O)NCc1cc2cc(Cl)cc(C(=O)OC)c2o1 [Example 64, Methyl 5-chloro-2-((2-(methylamino)pyrazolo[1,5-a]pyrimidine-3-carboxamido)methyl)benzofuran-7-carboxylate] | 68 µM | > 100 µM |  | 
17 | COC(=O)c1cc(OC)cc2cc(CNC(=O)c3cnn4cccnc34)oc12 [EXAMPLE 102, Methyl 5-methoxy-2-((pyrazolo[1,5-a]pyrimidine-3-carboxamido)methyl)benzofuran-7-carboxylate] | 2.5 µM | 3 µM |  | 
18 | COC(=O)c1cc(C)cc2cc(CN3Cc4ccncc4C3=O)oc12 [Example 88, Methyl 5-methyl-2-((3-oxo-1,3-dihydro-2H-pyrrolo[3,4-c]pyridin-2-yl)methyl)benzofuran-7-carboxylate] | 21 µM | 20 µM |  | 
19 | COc1cc(C(=O)OCC(F)(F)F)c2oc(CNC(=O)c3cnn4cccnc34)cc2c1 [EXAMPLE 280, 2,2,2-Trifluoroethyl 5-methoxy-2-((pyrazolo[1,5-a]pyrimidine-3-carboxamido)methyl)benzofuran-7-carboxylate] | 2.5 µM | 2.4 µM |  | 
20 | COC(=O)c1cc(Cl)cc2cc(CNC(=O)c3cncnc3OC)oc12 [Example 73, Methyl 5-chloro-2-((4-methoxypyrimidine-5-carboxamido)methyl)benzofuran-7-carboxylate] | 2.1 µM | 2.6 µM |  | 
21 | C[C@@H](OC(=O)c1cc(Cl)cc2cc(CNC(=O)c3cncc4[nH]cnc34)oc12)C(F)(F)F [EXAMPLE 265, (R)-1,1,1-Trifluoropropan-2-yl 2-((3H-imidazo[4,5-c]pyridine-7-carboxamido)methyl)-5-chlorobenzofuran-7-carboxylate] | 0.84 µM | 0.82 µM |  | 
22 | COC(=O)c1cccc2cc(Cn3cccc(C#N)c3=O)oc12 [EXAMPLE 18, Methyl 2-((3-cyano-2-oxopyridin-1(2H)-yl)methyl)benzofuran-7-carboxylate] | 79 µM | 97 µM |  | 
23 | COC(=O)c1cc(Cl)cc2cc(CNC(=O)c3c(N)nn4cccnc34)oc12 [Example 63, Methyl 2-((2-aminopyrazolo[1,5-a]pyrimidine-3-carboxamido)methyl)-5-chlorobenzofuran-7-carboxylate] | 10 µM | 16 µM |  | 
24 | Cc1ccc(C(=O)OC(C)C(F)(F)F)c2oc(CNC(=O)c3cnn4cccnc34)cc12 (stereo not drawn) [EXAMPLE 225, 1,1,1-Trifluoropropan-2-yl 4-methyl-2-((pyrazolo[1,5-a]pyrimidine-3-carboxamido)methyl)benzofuran-7-carboxylate] | 7.5 µM | 7.5 µM |  | 
25 | C[C@@H](OC(=O)c1cc(Cl)cc2c(Cl)c(CNC(=O)c3cnn4cccnc34)oc12)C(F)(F)F [EXAMPLE 295, (R)-1,1,1-Trifluoropropan-2-yl 3,5-dichloro-2-((pyrazolo[1,5-a]pyrimidine-3-carboxamido)methyl)benzofuran-7-carboxylate] | 1.1 µM | 0.56 µM |  | 
26 | COC(=O)c1cc(F)cc2cc(CNC(=O)c3cnn4cccnc34)oc12 [EXAMPLE 35, Methyl 5-fluoro-2-((pyrazolo[1,5-a]pyrimidine-3 carboxamido)methyl)benzofuran-7-carboxylate] | 0.53 µM | 0.77 µM |  | 
27 | COC(=O)c1cc(Cl)cc2c(Cl)c([C@H](C)NC(=O)c3cnn4cccnc34)oc12 [EXAMPLE 114, Methyl (S)-3,5-dichloro-2-(1-(pyrazolo[1,5-a]pyrimidine-3-carboxamido)ethyl)benzofuran-7-carboxylate] | 0.97 µM | 0.89 µM |  | 
